{
  "source": "patent US6054455A",
  "about": "“Method for treating or preventing chronic nonbacterial prostatitis and prostatodynia” (Merck & Co., Inc., priority 1999, dated 2000)",
  "test_system": "patients suffering from chronic nonbacterial prostatitis",
  "assay": "Double-blind, placebo-controlled study of a substance P antagonist in patients suffering from chronic nonbacterial prostatitis",
  "format": "in vivo, human",
  "details": "30 mg/day; assessed by immunological profile, rating scales, checklists and diminishment of the attendant disease state",
  "description": "Double-Blind, Placebo-Controlled Study to Determine the Effect of a Substance P Antagonist on Patients Suffering from Chronic Nonbacterial Prostatitis Approximately twenty patients diagnosed as suffering from chronic nonbacterial prostatitis receive either the substance P receptor antagonist 2-(R)-(1-(R)-(3,5-bis(trifluoromethyl)-phenyl)-ethoxy)-3-(S)-(4-fluoro-phenyl)-4-(3-(5-oxo-1H,4H-1,2,4-triazolo)methyl-morpholine (30 mg/day) or a placebo. Each subject participates in 6 randomized test periods; in 3 of the test periods, each is given the substance P antagonist and in the other 3 test periods, is given a placebo. Efficacy of the test compound is assessed by reference to immunological profile, rating scales, checklists and diminishment of the attendant disease state.",
  "data": [
    {"smiles": "C[C@@H](O[C@H]1OCCN(Cc2n[nH]c(=O)[nH]2)[C@H]1c1ccc(F)cc1)c1cc(C(F)(F)F)cc(C(F)(F)F)c1", "note": "[2-(R)-(1-(R)-(3,5-bis(trifluoromethyl)-phenyl)-ethoxy)-3-(S)-(4-fluoro-phenyl)-4-(3-(5-oxo-1H,4H-1,2,4-triazolo)methyl-morpholine]", "values": [
      {"measurement": "effect with respect to placebo in the treatment or prevention of chronic nonbacterial prostatitis", "value": "positive effect with respect to placebo"}
    ]}
  ]
}
